Measurements as given in patent US10590106B2, “Certain chemical entities, compositions, and methods” (NeuPharma, Inc., priority 2012, dated 2020).

Columns and labels:
[1] = biological target: BRAF (Homo sapiens (Human), UniProt P15056); test: Inhibitory activity against kinase BRAF, Z'-LYTE method (Invitrogen); format: biochemical; details: 1 μM compound
Summary of the method: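 Z′-LYTE FRET kinase assay in 50 mM HEPES pH 7.5, 10 mM MgCl2, 1 mM EGTA, 0.01% Brij-35, with a 60 min RT kinase reaction, then 60 min development. IC50 was taken from % inhibition versus concentration. Values may be given as % inhibition at 1 μM.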

[2] = biological target: BRAF V600E (Homo sapiens (Human), UniProt P15056, V600E); test: Inhibitory activity against kinase BRAF V600E, Z'-LYTE method (Invitrogen); format: biochemical; details: 1 μM compound; read-out: Inhibition (% inhibition at 1 μM) against BRAF V600E
Summary of the method: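 FRET-based Z′-LYTE peptide-phosphorylation assay in 50 mM HEPES pH 7.5, 0.01% BRIJ-35, 10 mM MgCl2, 1 mM EGTA; kinase reaction 60 min at room temperature, then 60 min development before fluorescence read. IC50 from concentration vs % inhibition; single-point % inhibition tested at 1 μM.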

[3] = biological target: KDR (VEGFR2) (Homo sapiens (Human), UniProt P35968); test: Inhibitory activity against kinase KDR, Z'-LYTE method (Invitrogen); format: biochemical; details: 1 μM compound; read-out: Inhibition (% inhibition at 1 μM) against KDR
Summary of the method: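 Human KDR (VEGFR2) kinase inhibition was measured with Invitrogen's Z′-LYTE® method. A 2× mixture of KDR and Tyr 01 peptide is made in 50 mM HEPES pH 7.5, 0.01% BRIJ-35, 10 mM MgCl2, 1 mM EGTA. Each 10 μL reaction holds 0.5-11.7 ng enzyme and 2 μM Tyr 01. It incubates for 1 hour, then 5 μL of Development Reagent B diluted 1:256 is added.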

[4] = system: A375 cells; test: Inhibition of cancer cell growth, MTT or MTS assay, A375; format: cell-based; details: Homo sapiens, A-375; 72 h incubation
Summary of the method: (§1)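 Cells in RPMI 1640 with 10% FBS were seeded at ~2000 (A375) or 4000 (A549, Colo205) per well, grown 24 h, then exposed to compound 72 h at 1% final DMSO. Read-out by MTT (570 nm) or MTS (490 nm). IC50 from concentration vs percent inhibition, triplicates.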

[5] = system: A549 cells; test: Inhibition of cancer cell growth, MTT or MTS assay, A549; format: cell-based; details: Homo sapiens, 72 h incubation
Summary of the method: as §1

[6] = system: Colo205 cells; test: Inhibition of cancer cell growth, MTT or MTS assay, Colo205; format: cell-based; details: Homo sapiens, COLO 205; 72 h incubation
Procedure: Inhibition of cell growth by compounds was measured using MTT or MTS assay. Tumor cell lines were purchased from ATCC (American Type Culture Collection, Manassas, Va.). All cell lines were maintained in RPMI 1640 (Hyclone) supplemented with 10% fetal bovine serum (FBS, Hyclone), glutamine (2 mM, Hyclone), and antibiotics (penicillin 100 U/mL and streptomycin 50 μg/mL) at 37° C. in a humidified atmosphere of 5% CO2 in air. Taxol (as a positive control, Sigma) and compounds were dissolved in DMSO (Sigma), and the final concentration of DMSO in the medium was 1%. Tumor cells were plated in 96-well plates at densities of about 2000 (A375) or 4000 (A549 and Colo205) cells/well of a 96-well plate and allowed to adhere/grow for 24 h. They were then treated with various concentrations of drug and incubated for 72 h. For MTT method, medium was then removed by inverting and tapping the plates. 100 μL of MTT (0.5 mg/ml) was added to each well followed by an incubated at 37° C. for 4 h. MTT was then removed and 200 μL of DMSO was added to each well, and the ODs at 570 nm were measured after a 5 second shaking cycle in a 96-well spectrophotometer. For MTS method, 20 μL MTS (CellTiter 96 Aqueous One Solution, Promega) was added to each well followed by an incubated at 37° C. for 2-4 h, solutions were then directly put in a 96-well spectrophotometer, and the ODs at 490 nm were measured.
All concentrations of compounds were tested in triplicate and controls were averaged over 4 wells. IC50 was calculated by plotting the concentration of compound vs the percentage of inhibition in treated wells using GraphPad Prism 5. […] The scale utilized in Tables […] is as follows: +++ less than 1000 nM; ++ between 1000 nM and 5000 nM; and + greater than 5000 nM. The scale utilized in Table 8 is as follows: +++ less than 2000 nM; ++ between 2000 nM and 5000 nM; and + greater than 5000 nM.

[7] = system: Colo205 tumor xenograft; test: Inhibition of tumor growth in Colo205 tumor xenograft model; format: in vivo, BALB/c female nude mice; details: 30 mg/kg, qd × 14, i.p.
Procedure: Cells were implanted in BALB/c female nude mice and grown as tumor xenografts. When tumors achieved 120-200 mm^3, mice were assigned into treatment and control groups using randomized block design based upon their tumor volumes. Each group contained 6 tumor-bearing mice. Tumors were measured twice weekly in two dimensions using a caliper, and the tumor volume was calculated from two-dimensional measurements using the equation V=0.5×a×b^2 where a and b are the long and short diameters of the tumor, respectively. Relative tumor volume (RTV) was defined as TVt/TVi, the ratio of the volume on a given day (TVt) and the volume at the start of treatment (TVi). Relative tumor growth rate (T/C) was defined as RTVT/RTVC, the ratio of relative tumor volume of treatment group (RTVT) and relative tumor volume of control group (RTVC) on a given day. Inhibition of tumor growth in a Colo205 tumor xenograft model is shown below in Table 10 for a compound of Table 1.

Sequence of BRAF (P15056 whole entry): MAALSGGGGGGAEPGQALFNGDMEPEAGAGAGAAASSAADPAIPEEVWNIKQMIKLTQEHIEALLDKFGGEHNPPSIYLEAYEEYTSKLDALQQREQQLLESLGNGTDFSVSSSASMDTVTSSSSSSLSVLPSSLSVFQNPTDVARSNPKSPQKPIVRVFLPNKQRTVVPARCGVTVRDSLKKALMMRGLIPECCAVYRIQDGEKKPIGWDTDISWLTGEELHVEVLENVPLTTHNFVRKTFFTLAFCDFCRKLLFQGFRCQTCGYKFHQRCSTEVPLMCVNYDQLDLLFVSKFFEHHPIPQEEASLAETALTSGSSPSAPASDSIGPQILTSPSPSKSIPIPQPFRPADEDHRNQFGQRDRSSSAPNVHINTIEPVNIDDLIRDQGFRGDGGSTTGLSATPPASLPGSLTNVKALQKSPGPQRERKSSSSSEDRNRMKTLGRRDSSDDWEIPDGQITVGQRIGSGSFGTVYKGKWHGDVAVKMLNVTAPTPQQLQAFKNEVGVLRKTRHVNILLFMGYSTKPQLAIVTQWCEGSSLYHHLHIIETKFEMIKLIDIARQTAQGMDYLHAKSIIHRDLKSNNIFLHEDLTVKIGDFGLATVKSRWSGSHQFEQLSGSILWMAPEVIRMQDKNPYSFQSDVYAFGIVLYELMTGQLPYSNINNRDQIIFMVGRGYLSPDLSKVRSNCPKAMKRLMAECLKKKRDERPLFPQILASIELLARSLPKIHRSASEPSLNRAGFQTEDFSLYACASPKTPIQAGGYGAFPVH
Sequence of KDR (VEGFR2) (P35968 20-1356): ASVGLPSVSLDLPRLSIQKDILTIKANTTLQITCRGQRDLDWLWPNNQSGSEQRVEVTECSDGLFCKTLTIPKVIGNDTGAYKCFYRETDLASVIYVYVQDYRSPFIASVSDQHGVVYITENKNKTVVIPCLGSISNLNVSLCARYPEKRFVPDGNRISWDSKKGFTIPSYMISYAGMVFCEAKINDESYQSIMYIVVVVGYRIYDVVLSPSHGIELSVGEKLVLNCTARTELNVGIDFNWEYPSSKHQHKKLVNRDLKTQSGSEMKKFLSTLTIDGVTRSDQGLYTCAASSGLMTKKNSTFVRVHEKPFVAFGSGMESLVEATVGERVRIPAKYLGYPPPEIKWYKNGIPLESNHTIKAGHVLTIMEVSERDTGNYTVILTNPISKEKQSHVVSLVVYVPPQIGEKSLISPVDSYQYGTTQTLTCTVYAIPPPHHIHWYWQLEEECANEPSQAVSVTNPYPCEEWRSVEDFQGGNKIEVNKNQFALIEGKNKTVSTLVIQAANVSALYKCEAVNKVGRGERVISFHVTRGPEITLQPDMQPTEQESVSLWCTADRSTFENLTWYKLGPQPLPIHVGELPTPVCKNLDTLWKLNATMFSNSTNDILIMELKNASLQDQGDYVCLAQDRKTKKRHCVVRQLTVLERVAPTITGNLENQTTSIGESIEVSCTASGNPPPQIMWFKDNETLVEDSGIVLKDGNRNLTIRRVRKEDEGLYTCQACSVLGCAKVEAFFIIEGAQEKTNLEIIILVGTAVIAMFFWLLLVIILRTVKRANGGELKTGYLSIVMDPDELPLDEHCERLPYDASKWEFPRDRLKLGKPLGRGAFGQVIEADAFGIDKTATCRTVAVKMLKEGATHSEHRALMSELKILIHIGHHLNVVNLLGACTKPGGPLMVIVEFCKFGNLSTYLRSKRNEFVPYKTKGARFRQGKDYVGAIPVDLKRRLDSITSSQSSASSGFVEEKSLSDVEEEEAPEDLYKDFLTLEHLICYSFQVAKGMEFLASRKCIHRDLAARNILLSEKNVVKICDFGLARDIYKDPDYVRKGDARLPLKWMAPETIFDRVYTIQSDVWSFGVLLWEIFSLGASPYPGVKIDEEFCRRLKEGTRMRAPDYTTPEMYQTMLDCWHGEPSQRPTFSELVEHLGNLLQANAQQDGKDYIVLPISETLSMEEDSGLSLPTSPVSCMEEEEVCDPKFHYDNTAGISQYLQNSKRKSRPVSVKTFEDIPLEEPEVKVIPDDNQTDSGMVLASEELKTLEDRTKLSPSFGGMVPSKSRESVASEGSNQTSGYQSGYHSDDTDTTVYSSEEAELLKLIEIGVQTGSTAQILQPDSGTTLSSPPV
Sequence of BRAF V600E (P15056 whole entry V600E): as the sequence (P15056 whole entry) above, with V600E counted along it

What does the source list for `O=C(Nc1ccc(Oc2ccc3ncc(N4CCNCC4)nc3c2)cc1)Nc1ccc(Cl)c(C(F)(F)F)c1` [Compound C089, 1-(4-chloro-3-(trifluoromethyl)phenyl)-3-(4-((3-(piperazin-1-yl)quinoxalin-6-yl)oxy)phenyl)urea]?
inhibition at 1 µM [1]: < 70%; inhibition at 1 µM [2]: > 89%; inhibition at 1 µM [3]: > 89%; IC50 [4]: < 1000 nM; IC50 [5]: < 2000 nM; IC50 [6]: < 1000 nM; T/C (relative tumor growth rate) [7]: 79%; Tumor Volume Post-treatment ([7]; after treatment): 768.94 mm^3; Tumor Volume Pre-treatment ([7]; before treatment): 233.30 mm^3
